Active and inactive are the calls of the source. Some results are limits rather than exact numbers.

The values that follow come from ChEMBL document CHEMBL1201862, “PubChem BioAssay data set” (2004).

In experiment [1] the target is T1, Beta-adrenergic receptor kinase 1 (Homo sapiens, UniProt P25098). The experiment is described as follows: blockers of aptamer binding to GRK2 – biochemical, flow cytometry beads, FAM-aptamer, powder set 1, dose response (AID 588720).
In experiment [2] the target is T1, Beta-adrenergic receptor kinase 1. The experiment is described as follows: aptamer displacement from bead-bound GRK2 – biochemical, cherry pick 1, bead flow cytometry, dose response (AID 504500). A general note: In flow cytometry, cells or beads pass a laser one at a time.
Experiment [3] has as its target T2, Carboxy-terminal domain RNA polymerase II polypeptide A small phosphatase 1 (Homo sapiens, UniProt Q9GZU7).
T2 sequence (Q9GZU7 whole entry): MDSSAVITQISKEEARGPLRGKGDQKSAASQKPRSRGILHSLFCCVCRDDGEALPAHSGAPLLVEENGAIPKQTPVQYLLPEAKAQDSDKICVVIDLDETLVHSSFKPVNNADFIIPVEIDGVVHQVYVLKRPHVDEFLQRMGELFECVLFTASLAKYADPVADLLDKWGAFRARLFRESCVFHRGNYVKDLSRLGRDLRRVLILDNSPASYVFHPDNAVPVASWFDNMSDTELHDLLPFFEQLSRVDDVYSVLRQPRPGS
Briefly: CTDSP1 inhibitors, concentration-response, biochemical, absorbance readout, ultra-high-throughput screen actives (AID 540297). The format is functional.

Experiment [4] addresses DNA (cytosine-5)-methyltransferase 1 (Homo sapiens, UniProt P26358). Briefly: inhibition of DNA methylation by DNMT1 – biochemical, fluorescent molecular beacon, confirmation (AID 602386). The format is functional.
The nature of experiment [5]: suppression of NO production in INS-1E cells – cell-based, Griess absorbance, dry powder, set 3, dose response (AID 488870). The format is functional. The following applies: Rattus norvegicus. Background: The Griess reaction detects nitrite, a stable product of nitric oxide.
Experiment [6] deals with INS1. The experiment is described as follows: suppression of NO production in INS-1E cells – cell-based, Griess absorbance, dry powder, set 2, dose response (AID 488868). It counts as functional. The following applies: Rattus norvegicus.
For experiment [7], the system named is INS1. Briefly: beta-cell survival under cytokine stress – INS-1E, ATP luminescence, dry powder, dose response (AID 488844). The format is functional, cell-based. The following applies: Rattus norvegicus.
Experiment [8] concerns INS1. The experiment is described as follows: INS-1E mitochondrial potential loss inhibitors – cell-based, JC-1 fluorescence, dry powder, set 2, dose response (AID 488867). The following applies: Rattus norvegicus. It counts as functional.
In experiment [9] the target is DNA dC->dU-editing enzyme APOBEC-3G (Homo sapiens, UniProt Q9HC16). Briefly: inhibition of APOBEC3G ssDNA deamination – biochemical, fluorescence, single-stranded DNA substrate, SAR follow-up (AID 602136). As to conditions: read-out: IC50_Mean. It counts as functional.
DNA dC->dU-editing enzyme APOBEC-3G, sequence (Q9HC16 whole entry): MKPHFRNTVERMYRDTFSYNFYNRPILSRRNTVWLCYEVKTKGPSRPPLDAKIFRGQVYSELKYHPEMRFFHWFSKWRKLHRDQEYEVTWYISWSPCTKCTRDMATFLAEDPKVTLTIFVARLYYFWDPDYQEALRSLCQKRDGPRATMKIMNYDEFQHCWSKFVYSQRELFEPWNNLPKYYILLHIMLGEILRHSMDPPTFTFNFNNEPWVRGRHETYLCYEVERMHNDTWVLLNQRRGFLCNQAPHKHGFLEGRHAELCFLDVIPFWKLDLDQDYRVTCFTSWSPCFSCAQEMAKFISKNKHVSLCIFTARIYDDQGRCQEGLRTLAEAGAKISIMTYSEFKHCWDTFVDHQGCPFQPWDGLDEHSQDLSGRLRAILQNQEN
Experiment [10] addresses DNA dC->dU-editing enzyme APOBEC-3A (Homo sapiens, UniProt P31941). The experiment is described as follows: SAR analysis of small molecule inhibitors of APOBEC3A DNA Deaminase via a fluorescence-based single-stranded DNA deaminase assay. As to conditions: read-out: IC50_Mean. The format is functional.
In experiment [11] the target is T3, Sentrin-specific protease 8 (Homo sapiens, UniProt Q96LD8).
T3 sequence (Q96LD8 whole entry): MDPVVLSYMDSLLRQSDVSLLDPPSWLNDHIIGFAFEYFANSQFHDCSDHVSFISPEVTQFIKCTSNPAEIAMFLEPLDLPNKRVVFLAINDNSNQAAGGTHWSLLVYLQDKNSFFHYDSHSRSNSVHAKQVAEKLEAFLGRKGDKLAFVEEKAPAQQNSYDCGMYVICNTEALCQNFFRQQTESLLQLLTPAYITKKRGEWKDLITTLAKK
Briefly: inhibition of human SENP8 cleavage activity – biochemical, luminescence, SAR follow-up (AID 504501). The format is functional.

The target in experiment [12] is T4, Sentrin-specific protease 7 (Homo sapiens, UniProt Q9BQF6).
T4 sequence (Q9BQF6 whole entry): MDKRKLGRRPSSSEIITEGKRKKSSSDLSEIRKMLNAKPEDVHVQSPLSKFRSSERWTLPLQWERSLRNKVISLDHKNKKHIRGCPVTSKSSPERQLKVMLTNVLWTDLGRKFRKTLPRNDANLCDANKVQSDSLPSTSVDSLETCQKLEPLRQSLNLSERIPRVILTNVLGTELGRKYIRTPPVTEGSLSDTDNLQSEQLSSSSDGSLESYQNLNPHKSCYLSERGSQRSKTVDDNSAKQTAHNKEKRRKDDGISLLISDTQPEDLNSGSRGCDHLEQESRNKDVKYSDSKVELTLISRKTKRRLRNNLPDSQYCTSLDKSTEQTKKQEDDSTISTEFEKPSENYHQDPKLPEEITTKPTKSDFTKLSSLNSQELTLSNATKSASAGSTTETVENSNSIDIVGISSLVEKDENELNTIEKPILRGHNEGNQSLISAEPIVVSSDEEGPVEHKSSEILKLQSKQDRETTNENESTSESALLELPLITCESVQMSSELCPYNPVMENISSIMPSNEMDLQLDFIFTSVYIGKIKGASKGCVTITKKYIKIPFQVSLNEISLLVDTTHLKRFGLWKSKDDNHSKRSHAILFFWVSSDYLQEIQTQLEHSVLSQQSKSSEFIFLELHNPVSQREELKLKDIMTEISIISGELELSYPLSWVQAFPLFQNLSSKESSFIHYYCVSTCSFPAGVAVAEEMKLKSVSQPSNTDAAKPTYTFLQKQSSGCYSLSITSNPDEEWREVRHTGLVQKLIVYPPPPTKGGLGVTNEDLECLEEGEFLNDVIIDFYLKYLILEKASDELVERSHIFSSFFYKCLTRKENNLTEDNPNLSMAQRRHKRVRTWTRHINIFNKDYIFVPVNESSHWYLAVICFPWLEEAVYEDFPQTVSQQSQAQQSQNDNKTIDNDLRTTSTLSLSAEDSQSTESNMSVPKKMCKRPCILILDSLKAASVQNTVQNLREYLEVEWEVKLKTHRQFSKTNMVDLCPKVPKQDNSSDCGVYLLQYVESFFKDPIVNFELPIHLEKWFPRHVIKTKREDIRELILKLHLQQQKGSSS
The experiment is described as follows: inhibition of human SENP7 cleavage activity – biochemical, luminescence, SAR follow-up (AID 504497). The format is functional.

Experiment [13] has as its target T3, Sentrin-specific protease 8. Briefly: inhibition of sentrin protease 8 – biochemical, luminescence, set 2, SAR follow-up (AID 588601). The format is functional.
A further experiment addresses T5, Caspase-3 (Homo sapiens, UniProt P42574).
T5 sequence (P42574 whole entry): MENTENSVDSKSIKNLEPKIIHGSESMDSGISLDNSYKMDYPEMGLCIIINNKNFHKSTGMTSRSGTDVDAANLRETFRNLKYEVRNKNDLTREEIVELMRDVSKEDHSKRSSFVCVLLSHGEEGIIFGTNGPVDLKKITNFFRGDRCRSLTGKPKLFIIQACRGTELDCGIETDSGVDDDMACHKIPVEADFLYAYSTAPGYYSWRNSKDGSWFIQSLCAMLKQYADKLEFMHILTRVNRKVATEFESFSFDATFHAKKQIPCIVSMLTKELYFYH
The experiment is described as follows: SAR Analysis of small molecule inhibitors of Sentrin-specific proteases (SENPs) using a Caspase-3 Selectivity assay. [Related pubchem assays (depositor defined):AID2540, AID2599, AID434973, AID489001]. The format is functional.

Experiment [14] concerns the target T6, Sentrin-specific protease 6 (Homo sapiens, UniProt Q9GZR1).
T6 sequence (Q9GZR1 whole entry): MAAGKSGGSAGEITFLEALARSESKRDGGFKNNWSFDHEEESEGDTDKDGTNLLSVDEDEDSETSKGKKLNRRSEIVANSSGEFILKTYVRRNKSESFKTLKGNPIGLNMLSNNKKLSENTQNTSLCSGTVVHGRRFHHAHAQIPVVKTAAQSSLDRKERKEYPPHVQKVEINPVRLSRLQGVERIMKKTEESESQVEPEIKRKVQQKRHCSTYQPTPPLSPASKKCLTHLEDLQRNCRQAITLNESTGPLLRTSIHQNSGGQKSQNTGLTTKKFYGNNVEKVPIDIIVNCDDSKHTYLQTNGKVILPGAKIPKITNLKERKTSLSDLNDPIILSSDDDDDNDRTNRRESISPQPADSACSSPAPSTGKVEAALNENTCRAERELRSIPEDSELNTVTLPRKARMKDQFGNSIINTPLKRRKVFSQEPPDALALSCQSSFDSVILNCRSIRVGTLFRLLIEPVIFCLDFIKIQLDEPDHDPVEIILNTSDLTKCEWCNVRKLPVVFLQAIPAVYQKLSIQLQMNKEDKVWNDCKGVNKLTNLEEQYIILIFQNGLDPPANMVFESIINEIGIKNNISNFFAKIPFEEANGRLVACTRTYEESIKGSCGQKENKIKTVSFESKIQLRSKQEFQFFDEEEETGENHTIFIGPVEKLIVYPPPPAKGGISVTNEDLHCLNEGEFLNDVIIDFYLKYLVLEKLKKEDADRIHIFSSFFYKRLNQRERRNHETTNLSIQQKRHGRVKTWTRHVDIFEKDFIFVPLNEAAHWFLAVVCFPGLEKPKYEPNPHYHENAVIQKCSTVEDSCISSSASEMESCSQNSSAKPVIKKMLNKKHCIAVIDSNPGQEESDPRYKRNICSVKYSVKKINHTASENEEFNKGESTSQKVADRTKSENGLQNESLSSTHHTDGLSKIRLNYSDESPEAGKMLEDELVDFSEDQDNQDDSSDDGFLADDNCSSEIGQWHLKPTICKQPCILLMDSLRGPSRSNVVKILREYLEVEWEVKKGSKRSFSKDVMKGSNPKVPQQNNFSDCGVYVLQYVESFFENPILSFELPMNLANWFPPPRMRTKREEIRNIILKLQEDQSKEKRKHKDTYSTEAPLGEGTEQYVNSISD
The experiment is described as follows: SAR Analysis of small molecule inhibitors of Sentrin-specific protease 6 (SENP6) using a Luminescent assay. [Related pubchem assays (depositor defined):AID2582, AID2599]. It counts as functional.

Experiment [15] deals with T4, Sentrin-specific protease 7. The experiment is described as follows: inhibition of human SENP7 cleavage activity – biochemical, luminescence, set 2, SAR follow-up (AID 588600). It counts as functional.
Experiment [16] deals with Glycogen synthase kinase-3 beta (Homo sapiens, UniProt P49841). The experiment is described as follows: Inhibition of Human GSK-3 beta Activity Measured in Biochemical System Using Microfluidics - 2063-05_Inhibitor_Dose_DryPowder_Activity. [Related pubchem assays (depositor defined):AID2709].
Glycogen synthase kinase-3 beta, sequence (P49841 whole entry): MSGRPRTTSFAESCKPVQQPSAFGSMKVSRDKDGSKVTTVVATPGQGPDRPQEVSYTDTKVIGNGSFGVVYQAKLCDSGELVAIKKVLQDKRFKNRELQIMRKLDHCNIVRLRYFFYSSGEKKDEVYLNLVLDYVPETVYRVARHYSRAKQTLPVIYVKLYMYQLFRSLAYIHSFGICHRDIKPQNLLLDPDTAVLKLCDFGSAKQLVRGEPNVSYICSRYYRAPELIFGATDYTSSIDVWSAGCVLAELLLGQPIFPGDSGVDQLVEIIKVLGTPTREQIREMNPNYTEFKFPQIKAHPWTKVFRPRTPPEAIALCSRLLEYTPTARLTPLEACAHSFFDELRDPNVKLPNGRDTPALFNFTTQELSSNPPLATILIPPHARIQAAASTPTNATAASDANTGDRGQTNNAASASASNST
In experiment [17] the target is Glycogen synthase kinase-3 alpha (Homo sapiens, UniProt P49840). Briefly: Inhibition of Human GSK-3 alpha Activity Measured in Biochemical System Using Microfluidics - 2063-06_Inhibitor_Dose_DryPowder_Activity. [Related pubchem assays (depositor defined):AID2709].
Glycogen synthase kinase-3 alpha, sequence (P49840 whole entry): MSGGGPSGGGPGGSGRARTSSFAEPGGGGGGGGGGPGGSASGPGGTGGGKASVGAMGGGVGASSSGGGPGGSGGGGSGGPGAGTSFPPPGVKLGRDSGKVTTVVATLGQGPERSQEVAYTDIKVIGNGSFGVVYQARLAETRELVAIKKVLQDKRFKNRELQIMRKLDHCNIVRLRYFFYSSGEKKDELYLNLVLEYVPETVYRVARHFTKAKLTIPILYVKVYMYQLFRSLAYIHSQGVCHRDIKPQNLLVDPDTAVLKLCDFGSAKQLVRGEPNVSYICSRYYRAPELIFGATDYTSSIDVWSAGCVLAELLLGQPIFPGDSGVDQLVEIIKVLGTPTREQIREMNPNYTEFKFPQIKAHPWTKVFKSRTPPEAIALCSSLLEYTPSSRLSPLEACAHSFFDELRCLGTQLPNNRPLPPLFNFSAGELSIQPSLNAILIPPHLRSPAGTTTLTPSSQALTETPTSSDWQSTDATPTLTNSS
A short description of experiment [18]: THP-1 cell cytotoxicity, cytotoxicity control, set 4 (AID 504911). The format is functional. As to conditions: Mycobacterium tuberculosis.
Experiment [19] can be described thus: Vero cell cytotoxicity, dose response, cytotoxicity control for M. tuberculosis growth inhibitor project, Vero cells, purified and synthesized compounds, set 4 (AID 504854). The format is functional. The following applies: Mycobacterium tuberculosis.
A short description of experiment [20]: THP-1 cell cytotoxicity, dose response, cytotoxicity control, set 3 (AID 504852). The format is functional. As to conditions: Mycobacterium tuberculosis.
Experiment [21] has as its target Voltage-gated inwardly rectifying potassium channel KCNH2 (Homo sapiens, UniProt Q12809). The following applies: Potency.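 Further: confirmatory quantitative high-throughput screen measuring inhibition of hERG channel activity.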
For the next experiment, the target named is DNA topoisomerase (Yersinia pestis, UniProt A0A2S9PM60). The experiment is described as follows: Yersinia topoisomerase I cleavage product accumulation – biochemical, cherry-pick, dose response (AID 588525).
DNA topoisomerase, sequence (A0A2S9PM60 whole entry, the tested form may be a part): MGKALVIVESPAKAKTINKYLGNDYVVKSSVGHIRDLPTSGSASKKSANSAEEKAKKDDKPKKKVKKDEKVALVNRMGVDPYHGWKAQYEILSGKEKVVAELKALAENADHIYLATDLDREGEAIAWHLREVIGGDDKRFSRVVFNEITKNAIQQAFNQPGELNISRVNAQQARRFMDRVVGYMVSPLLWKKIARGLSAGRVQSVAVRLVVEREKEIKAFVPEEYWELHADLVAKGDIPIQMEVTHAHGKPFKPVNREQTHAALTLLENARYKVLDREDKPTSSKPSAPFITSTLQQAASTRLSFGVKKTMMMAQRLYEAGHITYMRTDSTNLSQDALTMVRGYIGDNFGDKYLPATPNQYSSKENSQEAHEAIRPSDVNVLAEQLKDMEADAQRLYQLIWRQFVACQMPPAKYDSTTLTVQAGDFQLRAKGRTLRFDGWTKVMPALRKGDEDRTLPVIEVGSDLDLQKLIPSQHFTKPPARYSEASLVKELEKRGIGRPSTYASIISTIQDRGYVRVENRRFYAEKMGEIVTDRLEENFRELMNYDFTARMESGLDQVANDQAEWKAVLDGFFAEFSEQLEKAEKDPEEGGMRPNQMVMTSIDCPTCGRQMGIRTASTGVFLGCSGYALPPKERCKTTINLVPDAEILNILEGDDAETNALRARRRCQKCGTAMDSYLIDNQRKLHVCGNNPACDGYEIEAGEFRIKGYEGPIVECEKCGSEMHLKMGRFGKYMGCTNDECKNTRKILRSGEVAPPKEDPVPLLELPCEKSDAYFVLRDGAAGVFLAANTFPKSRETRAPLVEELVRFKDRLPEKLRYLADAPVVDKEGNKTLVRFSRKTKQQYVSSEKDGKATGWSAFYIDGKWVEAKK
Another experiment has as its system CHO. The experiment is described as follows: CHO cell viability loss, potency – luminescence, cytotoxicity control for TLR9-MyD88 binding inhibitor project, dose response (AID 588339).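 Further: CHO cells stably coexpressing TLR9 and MyD88 fusions from primary screen; compound exposure lasted 48 hours before viability readout.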 It counts as functional, cell-based, hamster. The following applies: Cricetulus griseus.

T1 sequence (P25098 whole entry): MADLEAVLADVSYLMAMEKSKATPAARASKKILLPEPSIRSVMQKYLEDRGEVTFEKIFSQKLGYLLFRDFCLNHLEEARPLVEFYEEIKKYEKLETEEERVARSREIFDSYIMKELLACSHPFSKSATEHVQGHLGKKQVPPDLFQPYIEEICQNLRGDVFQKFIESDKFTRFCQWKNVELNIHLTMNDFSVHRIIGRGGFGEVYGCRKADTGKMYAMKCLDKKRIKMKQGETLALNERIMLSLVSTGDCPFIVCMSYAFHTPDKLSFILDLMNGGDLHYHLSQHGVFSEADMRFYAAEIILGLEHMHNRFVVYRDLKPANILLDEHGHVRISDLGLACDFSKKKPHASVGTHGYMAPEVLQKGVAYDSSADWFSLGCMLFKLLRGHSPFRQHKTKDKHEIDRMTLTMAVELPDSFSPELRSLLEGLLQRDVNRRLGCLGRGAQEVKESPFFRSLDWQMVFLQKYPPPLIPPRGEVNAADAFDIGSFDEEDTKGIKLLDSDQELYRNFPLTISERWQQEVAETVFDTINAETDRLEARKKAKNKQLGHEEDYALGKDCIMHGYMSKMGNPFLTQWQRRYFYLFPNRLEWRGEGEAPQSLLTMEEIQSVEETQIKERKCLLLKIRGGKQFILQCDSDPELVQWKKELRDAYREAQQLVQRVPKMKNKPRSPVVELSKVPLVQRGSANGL
DNA (cytosine-5)-methyltransferase 1, sequence (P26358 whole entry): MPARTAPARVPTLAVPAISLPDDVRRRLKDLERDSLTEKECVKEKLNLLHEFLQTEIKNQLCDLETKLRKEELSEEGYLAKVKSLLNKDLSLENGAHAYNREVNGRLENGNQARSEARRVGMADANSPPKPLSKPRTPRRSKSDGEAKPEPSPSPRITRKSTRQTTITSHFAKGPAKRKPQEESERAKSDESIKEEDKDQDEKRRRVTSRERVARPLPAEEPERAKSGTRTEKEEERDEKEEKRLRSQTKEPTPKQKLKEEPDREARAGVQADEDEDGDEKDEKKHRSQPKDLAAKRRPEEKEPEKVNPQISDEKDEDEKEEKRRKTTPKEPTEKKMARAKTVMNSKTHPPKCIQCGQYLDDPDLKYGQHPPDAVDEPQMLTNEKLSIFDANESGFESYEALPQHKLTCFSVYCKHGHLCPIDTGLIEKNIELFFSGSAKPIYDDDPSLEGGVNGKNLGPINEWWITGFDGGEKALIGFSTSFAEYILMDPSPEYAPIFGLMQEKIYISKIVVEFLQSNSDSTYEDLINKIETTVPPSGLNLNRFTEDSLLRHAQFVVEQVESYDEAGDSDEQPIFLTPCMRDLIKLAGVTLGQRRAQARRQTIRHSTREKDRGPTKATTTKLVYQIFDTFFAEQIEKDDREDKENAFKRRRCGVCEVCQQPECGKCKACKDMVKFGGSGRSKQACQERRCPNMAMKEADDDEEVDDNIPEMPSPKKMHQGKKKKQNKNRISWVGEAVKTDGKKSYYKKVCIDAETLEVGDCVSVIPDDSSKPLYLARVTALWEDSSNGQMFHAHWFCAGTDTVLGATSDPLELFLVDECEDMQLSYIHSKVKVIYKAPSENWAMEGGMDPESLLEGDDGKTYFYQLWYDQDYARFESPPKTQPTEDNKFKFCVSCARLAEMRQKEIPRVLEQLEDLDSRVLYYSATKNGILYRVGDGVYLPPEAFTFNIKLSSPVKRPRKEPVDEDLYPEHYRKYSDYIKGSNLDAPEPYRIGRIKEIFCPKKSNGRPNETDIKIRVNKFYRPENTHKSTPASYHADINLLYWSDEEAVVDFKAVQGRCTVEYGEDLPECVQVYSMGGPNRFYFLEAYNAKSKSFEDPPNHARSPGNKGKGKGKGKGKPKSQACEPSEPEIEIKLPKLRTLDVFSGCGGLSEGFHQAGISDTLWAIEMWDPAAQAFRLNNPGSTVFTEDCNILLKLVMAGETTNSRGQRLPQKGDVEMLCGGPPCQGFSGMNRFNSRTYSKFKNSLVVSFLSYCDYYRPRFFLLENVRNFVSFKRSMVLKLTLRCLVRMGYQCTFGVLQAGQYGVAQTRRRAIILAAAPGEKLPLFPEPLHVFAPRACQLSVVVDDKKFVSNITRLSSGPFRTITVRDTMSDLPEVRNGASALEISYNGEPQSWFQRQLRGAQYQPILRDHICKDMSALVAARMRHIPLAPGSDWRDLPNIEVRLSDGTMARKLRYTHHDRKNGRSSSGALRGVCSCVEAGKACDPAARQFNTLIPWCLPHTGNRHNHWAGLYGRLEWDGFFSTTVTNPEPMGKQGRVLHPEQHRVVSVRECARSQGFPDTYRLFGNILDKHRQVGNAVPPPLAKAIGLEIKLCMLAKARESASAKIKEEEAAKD
DNA dC->dU-editing enzyme APOBEC-3A, sequence (P31941 whole entry): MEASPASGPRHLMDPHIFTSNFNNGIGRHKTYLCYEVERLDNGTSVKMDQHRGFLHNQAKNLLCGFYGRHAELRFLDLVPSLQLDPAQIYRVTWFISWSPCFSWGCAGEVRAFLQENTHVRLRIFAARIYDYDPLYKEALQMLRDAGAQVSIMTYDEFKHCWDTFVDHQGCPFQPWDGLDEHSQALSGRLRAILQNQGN

Take `CCN(CC)c1ccc(NC(=O)CCS(=O)(=O)c2ccc(Br)cc2)c(C)c1`: the EC50 in experiment [1] was 0.426 µM (active); in [2] it was 5.01 µM (active). For the same molecule, the IC50 in [3] was 3.04 µM (active); in [4] it was 8.64 µM (active).

Regarding `Cc1ccc(S(=O)(=O)N(C)C[C@@H]2Oc3c(NC(=O)Nc4cccc5ccccc45)cccc3C(=O)N([C@@H](C)CO)C[C@H]2C)cc1`, the AC50 is 32.7 µM (active) in experiment [5], 69.6 µM (active) in the experiment with INS1 [6], 31.7 µM (active) in the experiment on INS1 [7] and 48.3 µM (active) with INS1 [8].

With `CCCCN1CCc2cc(/C=C3\C(=O)NC(=S)N(C4CCCCC4)C3=O)ccc21`, the IC50 in [9] and in [10] was > 99 µM (inactive) each time.

In the case of `Cc1cccc(-c2noc(/C=C/c3ccccc3)n2)c1`, the IC50 in [11] is > 99 µM (inactive); in [12], 4.9 µM (active); in [13], 3.48 µM (active); on Caspase-3, 11 µM (active); in experiment [14], 17 µM (active); in experiment [15], 4.14 µM (active).

`CCCn1nc(NC(=O)C(C)C)c2cc3cc(OC)ccc3nc21`: the AC50 is 3.25 µM (active) in experiment [16] and 38.5 µM (active) in experiment [17].

For the molecule `O=C(CSc1nc2c(c(=O)[nH]1)CCCC2)NC1CCCCC1`, the CC50 in [18], in [19] and in [20] was > 100 µM (active) throughout.

Take `Cn1cc(C(=O)OCC2CCN(CCNS(C)(=O)=O)CC2)c2ccccc21`: in experiment [21], the concentration at half-maximal activity (AC50) was 35.5 µM (inconclusive).

On to `COc1cc2nc3n(c(=O)c2cc1OC)-c1cc2ccccc2cc1C(=O)NC3Cc1ccccc1` (centres undefined), for which the AC50 at DNA topoisomerase was 11.8 µM (active).

For the molecule `Nc1ccc2nc(-c3ccccc3)cnc2c1`, in the experiment on CHO, the IC50 was > 49.7 µM (inactive).

As usually defined, the EC50 is the concentration giving half of the maximal effect. What is called AC50 is the concentration at which the activity in the assay is half-maximal. What is called CC50 is the concentration that lowers cell viability or growth by half.
